Assay results: patent publication US20050070510A1, “Substituted tetracycline compounds as synergistic antifungal agents” (Paratek Pharmaceuticals, Inc., priority 2001, published 2005)

Tested on: COS-1 cells
Experiment: In vitro mammalian cytotoxicity assay (Resazurin)

Row | Structure (SMILES) | In Vitro Cytotoxicity
1 | COc1cccc(C/C=C\c2ccc(O)c3c2C[C@@]2(N)C[C@@]4(N)[C@H](N(C)C)C(O)=C(C(N)=O)C(=O)[C@@]4(C#N)C(O)=C2C3=O)c1OC [HV] | ** (toxicities less than 25 μg/mL are represented by **)
2 | Cc1cc(C)cc(-c2ccc(O)c3c2C[C@@]2(N)C[C@@]4(N)[C@H](N(C)C)C(O)=C(C(N)=O)C(=O)[C@@]4(C#N)C(O)=C2C3=O)c1 [GD] | ** (toxicities less than 25 μg/mL are represented by **)
3 | CCc1cc(C#CC2=CCCCC2)c(O)c2c1C[C@@]1(N)C[C@@]3(N)[C@H](N(C)C)C(O)=C(C(N)=O)C(=O)[C@@]3(C#N)C(O)=C1C2=O [KE] | ** (toxicities less than 25 μg/mL are represented by **)
4 | COC(=O)c1ccc(O)c2c1C[C@@]1(N)C[C@@]3(N)[C@H](N(C)C)C(O)=C(C(N)=O)C(=O)[C@@]3(C#N)C(O)=C1C2=O [RV] | ** (toxicities less than 25 μg/mL are represented by **)
5 | CN(C)[C@@H]1C(O)=C(C(N)=O)C(=O)[C@@]2(C#N)C(O)=C3C(=O)c4c(O)cccc4C(N)[C@@]3(N)[C@H](OC(=O)CNC(=O)OC(C)(C)C)[C@@]12N (stereo partly drawn) [AU] | ** (toxicities less than 25 μg/mL are represented by **)
6 | CN(C)[C@@H]1C(O)=C(C(N)=O)C(=O)[C@@]2(C#N)C(O)=C3C(=O)c4c(O)cccc4C[C@@]3(N)[C@H](NC(=O)CCN3CCOCC3)[C@@]12N [EZ] | ** (toxicities less than 25 μg/mL are represented by **)
7 | CN(C)[C@@H]1C(O)=C(C(N)=O)C(=O)[C@@]2(C#N)C(O)=C3C(=O)c4c(O)cccc4[C@H](N)[C@@]3(N)[C@H](OC(=O)CN)[C@@]12N [BV] | ** (toxicities less than 25 μg/mL are represented by **)
8 | CN(C)[C@@H]1C(O)=C(C(N)=O)C(=O)[C@@]2(C#N)C(O)=C3C(=O)c4c(O)c(C(C)(C)C)cc(-c5cccc([N+](=O)O)c5)c4C[C@@]3(N)C[C@@]12N [KS] | ** (toxicities less than 25 μg/mL are represented by **)
9 | Cc1ccc(-c2ccc(O)c3c2C[C@@]2(N)C[C@@]4(N)[C@H](N(C)C)C(O)=C(C(N)=O)C(=O)[C@@]4(C#N)C(O)=C2C3=O)nc1 [VC] | ** (toxicities less than 25 μg/mL are represented by **)
10 | Cc1csc(-c2ccc(O)c3c2C[C@@]2(N)C[C@@]4(N)[C@H](N(C)C)C(O)=C(C(N)=O)C(=O)[C@@]4(C#N)C(O)=C2C3=O)c1 [GN] | ** (toxicities less than 25 μg/mL are represented by **)
11 | CN(C)[C@@H]1C(O)=C(C(N)=O)C(=O)[C@@]2(C#N)C(O)=C3C(=O)c4c(O)cccc4[C@H](N)[C@@]3(N)[C@H](OC(=O)CCN3CCCC3)[C@@]12N [BQ] | ** (toxicities less than 25 μg/mL are represented by **)
12 | CN(C)[C@@H]1C(O)=C(C(N)=O)C(=O)[C@@]2(C#N)C(O)=C3C(=O)c4c(O)c(C(C)(C)C)cc(CCC(=O)c5cccnc5)c4C[C@@]3(N)C[C@@]12N [ID] | * (toxicities greater than >25 μg/ml are represented by *)
13 | COc1cccc(C#Cc2ccc(O)c3c2C[C@@]2(N)C[C@@]4(N)[C@H](N(C)C)C(O)=C(C(N)=O)C(=O)[C@@]4(C#N)C(O)=C2C3=O)c1 [GU] | ** (toxicities less than 25 μg/mL are represented by **)
14 | CCc1cc(C#Cc2ccc(OC)cc2)c(O)c2c1C[C@@]1(N)C[C@@]3(N)[C@H](N(C)C)C(O)=C(C(N)=O)C(=O)[C@@]3(C#N)C(O)=C1C2=O [LH] | ** (toxicities less than 25 μg/mL are represented by **)
15 | CN(C)[C@@H]1C(O)=C(C(N)=O)C(=O)[C@@]2(C#N)C(O)=C3C(=O)c4c(O)ccc(-c5ccc(CN6CCCC6)c6ccccc56)c4C[C@@]3(N)C[C@@]12N [OO] | ** (toxicities less than 25 μg/mL are represented by **)
16 | CN(C)CC#Cc1ccc(O)c2c1C[C@@]1(N)C[C@@]3(N)[C@H](N(C)C)C(O)=C(C(N)=O)C(=O)[C@@]3(C#N)C(O)=C1C2=O [FJ] | ** (toxicities less than 25 μg/mL are represented by **)
17 | CCCCc1ccc(-c2cc(N(C)C)c3c(c2O)C(=O)C2=C(O)[C@]4(C#N)C(=O)C(C(N)=O)=C(O)[C@@H](N(C)C)[C@]4(N)C[C@]2(N)C3)cc1 [LY] | ** (toxicities less than 25 μg/mL are represented by **)
18 | CN(C)[C@@H]1C(O)=C(C(N)=O)C(=O)[C@@]2(C#N)C(O)=C3C(=O)c4c(ccc(C5C=CCC5)c4O)C(N)[C@@]3(N)[C@H](O)[C@@]12N (stereo partly drawn) [AY] | ** (toxicities less than 25 μg/mL are represented by **)
19 | Cc1noc(C)c1S(=O)(=O)Nc1ccc2c(c1O)C(=O)C1=C(O)[C@]3(C#N)C(=O)C(C(N)=O)=C(O)[C@@H](N(C)C)[C@]3(N)C[C@]1(N)C2 [RI] | ** (toxicities less than 25 μg/mL are represented by **)
20 | CN(C)[C@@H]1C(O)=C(C(N)=O)C(=O)[C@@]2(C#N)C(O)=C3C(=O)c4c(O)ccc(C#Cc5ccccc5F)c4C[C@@]3(N)C[C@@]12N [GH] | ** (toxicities less than 25 μg/mL are represented by **)
21 | CCc1cc(CN)c(O)c2c1C[C@@]1(N)C[C@@]3(N)[C@H](N(C)C)C(O)=C(C(N)=O)C(=O)[C@@]3(C#N)C(O)=C1C2=O [IZ] | * (toxicities greater than >25 μg/ml are represented by *)

Row | Structure (SMILES) | In Vitro Cytotoxicity
22 | COC(=O)C(CO)NC(=O)c1cccc(-c2ccc(O)c3c2C[C@@]2(N)C[C@@]4(N)C(N(C)C)C(O)=C(C(N)=O)C(=O)[C@@]4(C#N)C(O)=C2C3=O)c1 (stereo partly drawn) [QT] | ** (toxicities less than 25 μg/mL are represented by **)
23 | CN(C)[C@@H]1C(O)=C(C(N)=O)C(=O)[C@@]2(C#N)C(O)=C3C(=O)c4c(O)ccc(-c5cccc(CN6CCOCC6)c5)c4C[C@@]3(N)C[C@@]12N [HS] | * (toxicities greater than >25 μg/ml are represented by *)
24 | CN(C)CCCc1ccc(O)c2c1C[C@@]1(N)C[C@@]3(N)[C@H](N(C)C)C(O)=C(C(=O)NC(C)(C)C)C(=O)[C@@]3(C#N)C(O)=C1C2=O [HH] | * (toxicities greater than >25 μg/ml are represented by *)
25 | CCOC(=O)C(NCc1ccc(OC)c(-c2ccc(O)c3c2C[C@@]2(N)C[C@@]4(N)[C@H](N(C)C)C(O)=C(C(N)=O)C(=O)[C@@]4(C#N)C(O)=C2C3=O)c1)C(C)C (stereo partly drawn) [NZ] | ** (toxicities less than 25 μg/mL are represented by **)
26 | CC(C)CNC(=O)NCc1cc(N(C)C)c2c(c1O)C(=O)C1=C(O)[C@]3(C#N)C(=O)C(C(N)=O)=C(O)[C@@H](N(C)C)[C@]3(N)C[C@]1(N)C2 [MF] | * (toxicities greater than >25 μg/ml are represented by *)
27 | CN(C)Cc1ccc(-c2cc(N(C)C)c3c(c2O)C(=O)C2=C(O)[C@]4(C#N)C(=O)C(C(N)=O)=C(O)[C@@H](N(C)C)[C@]4(N)C[C@]2(N)C3)cc1 [IJ] | * (toxicities greater than >25 μg/ml are represented by *)
28 | C=CCNc1ccc2c(c1O)C(=O)C1=C(O)[C@]3(C#N)C(=O)C(C(N)=O)=C(O)[C@@H](N(C)C)[C@]3(N)[C@@H](O)[C@]1(N)[C@H]2N [CI] | ** (toxicities less than 25 μg/mL are represented by **)
29 | Cc1ccc(/C=C/c2ccc(O)c3c2C[C@@]2(N)C[C@@]4(N)[C@H](N(C)C)C(O)=C(C(N)=O)C(=O)[C@@]4(C#N)C(O)=C2C3=O)cc1 [HA] | ** (toxicities less than 25 μg/mL are represented by **)
30 | CN(C)[C@@H]1C(O)=C(C(N)=O)C(=O)[C@@]2(C#N)C(O)=C3C(=O)c4c(O)cccc4[C@H](CSCc4ccccc4)[C@@]3(N)[C@H](O)[C@@]12N [DH] | ** (toxicities less than 25 μg/mL are represented by **)
31 | CN(C)c1ccc(O)c2c1C[C@@]1(N)C[C@@]3(N)[C@H](N(C)C)C(O)=C(C(=O)NCNC(=O)CCl)C(=O)[C@@]3(C#N)C(O)=C1C2=O [KG] | ** (toxicities less than 25 μg/mL are represented by **)
32 | CN(C)c1cc(-c2cccc(C(N)=O)c2)c(O)c2c1C[C@@]1(N)C[C@@]3(N)[C@H](N(C)C)C(O)=C(C(N)=O)C(=O)[C@@]3(C#N)C(O)=C1C2=O [EU] | ** (toxicities less than 25 μg/mL are represented by **)
33 | CN(C)[C@@H]1C(O)=C(C(N)=O)C(=O)[C@@]2(C#N)C(O)=C3C(=O)c4c(O)c(CN)cc(-c5ccccc5)c4C[C@@]3(N)C[C@@]12N [RO] | * (toxicities greater than >25 μg/ml are represented by *)
34 | CN(C)[C@@H]1C(O)=C(C(N)=O)C(=O)[C@@]2(C#N)C(O)=C3C(=O)c4c(O)c(CNC(=O)C5CC5)cc(-c5ccc(C(C)(C)C)cc5)c4C[C@@]3(N)C[C@@]12N [RM] | ** (toxicities less than 25 μg/mL are represented by **)
35 | CN(C)[C@@H]1C(O)=C(C(N)=O)C(=O)[C@@]2(C#N)C(O)=C3C(=O)c4c(O)ccc(NS(C)(=O)=O)c4C[C@@]3(N)C[C@@]12N [RZ] | * (toxicities greater than >25 μg/ml are represented by *)
36 | CCOC(=O)CNCc1ccc(-c2ccc(O)c3c2C[C@@]2(N)C[C@@]4(N)[C@H](N(C)C)C(O)=C(C(N)=O)C(=O)[C@@]4(C#N)C(O)=C2C3=O)c2ccccc12 [OQ] | ** (toxicities less than 25 μg/mL are represented by **)
37 | CCc1cc(N(C)C)c2c(c1O)C(=O)C1=C(O)[C@]3(C#N)C(=O)C(C(N)=O)=C(O)[C@@H](N(C)C)[C@]3(N)C[C@]1(N)C2 [QZ] | * (toxicities greater than >25 μg/ml are represented by *)
38 | CN(C)[C@@H]1C(O)=C(C(N)=O)C(=O)[C@@]2(C#N)C(O)=C3C(=O)c4c(O)ccc(-c5ccc6c(c5)OCO6)c4C[C@@]3(N)C[C@@]12N [EO] | ** (toxicities less than 25 μg/mL are represented by **)
39 | CN(C)[C@@H]1C(O)=C(C(N)=O)C(=O)[C@@]2(C#N)C(O)=C3C(=O)c4c(O)ccc(-c5ccc(NC(=O)NCCCCl)cc5)c4C[C@@]3(N)C[C@@]12N [US] | ** (toxicities less than 25 μg/mL are represented by **)
40 | CN(C)[C@@H]1C(O)=C(C(N)=O)C(=O)[C@@]2(C#N)C(O)=C3C(=O)c4c(O)c(I)cc(I)c4[C@H](N)[C@@]3(N)[C@H](O)[C@@]12N [CT] | ** (toxicities less than 25 μg/mL are represented by **)
41 | CN(C)c1cc(C#Cc2ccc(F)cc2)c(O)c2c1C[C@@]1(N)C[C@@]3(N)[C@H](N(C)C)C(O)=C(C(N)=O)C(=O)[C@@]3(C#N)C(O)=C1C2=O [FF] | ** (toxicities less than 25 μg/mL are represented by **)
42 | CCCCCc1cc(CC2C(=O)c3ccccc3C2=O)c(O)c2c1C[C@@]1(N)C[C@@]3(N)[C@H](N(C)C)C(O)=C(C(N)=O)C(=O)[C@@]3(C#N)C(O)=C1C2=O [LA] | ** (toxicities less than 25 μg/mL are represented by **)
